Source: patent US6346278B1, “Lipid extract having anti-inflammatory activity” (Pharmalink International Limited, priority 1995, dated 2002)

Experiments:
Carrageenin paw oedema = assay: Acute carrageenin paw oedema assay; assay type: in vivo, rat; conditions: for % Inhibition Oedema 1 hr / % Inhibition Oedema 2 hr: 30 mg/kg
Experimental: Female Wistar rats (180-220 gm) were pre-dosed p.o. or i.p. with test formulations. 40 minutes later they were injected in each rear paw with 0.1 ml saline containing 0.6 mg Na carrageenin. The subsequent paw oedema was quantified by measuring the increase in paw thickness after one and two hours with a screw gauge micrometer. […] [The oedema recedes after three hours with this dose of carrageenin.]

stomach = assay: Gastro-toxicity assay; assay type: in vivo, rat
Experimental: Gastro toxicity studies were carried out on female Wistar rats with established arthritis initiated with collagen (type II), not on drug therapy. Aspirin and PCO were suspended with 0.04% Tween-20 for oral dosing, after fasting animals overnight. […]

[1] = tested on: Kaolin-induced paw oedema; assay: Kaolin-induced paw oedema; assay type: in vivo, rat; conditions: 150 mg/kg p.o., without synergist
Experimental: Kaolin-induced paw oedema was investigated as a possible assay for PCO since this inflammation is slower developing than that induced with carrageenin (which recedes after three hours). The protocol involves injecting 5 mg kaolin, suspended in water (not saline, in which it aggregates), into each rear paw 40 minutes after dosing the rats with PCO given both p.o. or i.p. as dispersions prepared with 0.02% Tween in either water (p.o.) or saline (i.p.). The paw swelling was then read two hours and five hours after the kaolin injection.

arthritic rats = assay: Anti-arthritic assay: adjuvant-induced polyarthritis, treatment days 10-13; assay type: in vivo; conditions: for % Reduction in Inflammation: rear paw thickness day 14 vs control
From the text: Though more time consuming, this assay is of more value than the acute assay (described above) as it detects not only (i) those anti-inflammatory drugs acting in the acute assay (but often at lower ED50 values) but also (ii) other agents e.g. clobuzarit (CIoZic^R) or lobenzarit (CCA), which obviously have unique arthritis-suppressant properties but are not anti-oedemic/antipyretic or otherwise detectable in acute assays.
The protocol used is to pre-establish disease by injecting the arthritigen on Day 0, look for first signs of paw inflammation (usually manifest on Days 10-12) and then dose the animals with test materials for four days. Over this period, the paw inflammation in the untreated control animals “blooms” rapidly to reach a near maximum on Day 14. Drugs acting over this time-frame to hold down the paw swelling are certainly anti-symptomatic but rarely disease-ablating. On ceasing treatment, there is usually a recrudescence in symptoms. This however is a positive feature of this assay as it clearly indicates a) the drug has a finite action but gives some idea of its duration of efficacy by the rapidity (or otherwise) of the rebound; and b) the animals with minimal signs of disease on Day 14 reflected a positive drug effect rather than failure to respond to the original arthritigen (i.e. false negatives). An accurate description of this assay is “late prophylaxis”. Obviously by delaying treatment until after Day 14, one can look for “therapeutic activity”, but since changes may be slow or negligible within four days (even with some powerful NSAIDs), collection of adequate data is difficult.
Details of the protocol used are: inject the arthritigen into the tailbase of female Wistar rats (160-200 gm)=800 mcg heat-killed Mycobact tuberculosis suspended in 0.1 ml squalane in such a fashion as to avoid any blood vessels and to promote optimal drainage into the lymphatics. Ten days later, the animals were weighed, the thickness of the rear paws and tail was measured and signs of inflammation in the forepaws scored on a scale of 0 to 4 +. After dosing with test compounds once daily for four days (i.e. on Days 10 through 13 post-arthritigen), these measurements were repeated on Days 14 and 18 (i.e. after completion of treatment and again after four days rebound) to monitor the arthritis development. […]
Rats with the first signs of arthritis 10 days after inoculating with mycobacterial arthritogen were then treated orally with the test materials for 4 days only. Effectiveness of the test materials was measured as […] rear paw thickness on day 14 when compared to the control group H.

[2] = tested on: collagen (II)-induced auto-allergic arthritis; assay: Collagen (II)-induced auto-allergic arthritis; conditions: for Rear paw inflammation Day 2 / Rear paw inflammation Day 4: paw inflamed by collagen (II) injection; for Percent Inhibitions Front paw inflam. / Percent Inhibitions Left rear paw / Percent Inhibitions Right rear paw: day 14
Experimental: Collagen (Type II) induced polyarthritis was induced in female Wistar rats by injection of collagen (II) with a non-arthritogenic adjuvant to sensitise the test animals.
PCO was given orally after dilution into olive oil (8 mg/ml) and administered at 2.5 ml/kg/day to give 20 mg/kg.
Prophylactic treatment was from day 1 to day 13 (i.e. total […]) orally (p.o.). […] PCO was diluted into olive oil (6 mg/ml) for p.o. dosing at 2.5 ml/kg/day to give 15 mg/kg, and diluted into olive oil-cineole (17.3 v/v) (10 mg/ml) for t.d. administration at 2 ml/kg/day to give 20 mg/kg.
Seatone™ was administered p.o. at 300 mg/kg; Nurofen™ was administered p.o. at 50 mg/kg; Na Aurothiomalate (ATM) was administered in 8 doses at 6.3 mg/kg subcutaneously (s.c.).

[3] = 6.3 mg/kg s.c. in saline x8, every second day
[4] = 6.3 mg/kg s.c. x8, every second day
[5] = with MPL (Misoprostal 0.5 mg/kg p.o.)
[6] = 50 mg/kg p.o. x15, prophylactic
[7] = 50 mg/kg p.o. x15, prophylactic day 1 to day 13

Question: With `CC(=O)Oc1ccccc1C(=O)O` [Aspirin] as the compound, how does the ED50 (Carrageenin paw oedema; Rattus norvegicus, acute carrageenin assay) read?
Answer: ~150 mg/kg

Question: And the “effect on the stomach (in words)” value (stomach; 300 mg/kg (20 times an effective dose of PCO))?
Answer: considerable gastric damage

Question: What about the Gastric lesion index (stomach; High arthritis with 0.15 N HCl co-administered orally, oral in 0.04% Tween-20) of the same compound?
Answer: >112

Question: What about the Gastric lesion index (stomach; High arthritis, Day 15, oral in 0.04% Tween-20, fasted overnight) of the same compound?
Answer: 82

Question: What about the Gastric lesion index (stomach; Low arthritis, Day 32, oral in 0.04% Tween-20, fasted overnight) of the same compound?
Answer: 41

Question: And the “% Inhibition Oedema 2 HR” value ([1]; 2 HR)?
Answer: 55%

Question: What about the “% Inhibition Oedema 5 HR” value ([1]; 5 HR) of the same compound?
Answer: 51%

Question: And the “effective dose in the standard anti-arthritic assay” value (arthritic rats; adjuvant-induced rat polyarthritis)?
Answer: 300 mg/kg

Question: Which “Rear paw inflammation Day 2” value [2, 3] does the source give for `O=C([O-])CC([S-])C(=O)[O-].[Au+].[Na+].[Na+]` (stereo not shown) [ATM, sodium aurothiomalate] here?
Answer: 1.00 mm

Question: What about the “Rear paw inflammation Day 4” value [2, 3] of the same compound?
Answer: 0.68 mm

Question: What about the “Day 14: Signs arthritis Front paw inflam.” value [2, 4] of the same compound?
Answer: 1.3+

Question: And the “Day 14: Signs arthritis Left rear paw” value [2, 4]?
Answer: 0.47 mm

Question: And the “Day 14: Signs arthritis Right rear paw” value [2, 4]?
Answer: 0.70 mm

Question: And the “Percent Inhibitions rear paw inflammation Day 2” value [2, 4]?
Answer: 29%

Question: And the “Percent Inhibitions rear paw inflammation Day 4” value [2, 4]?
Answer: 46%

Question: And the “Percent Inhibitions Front paw inflam.” value [2, 4]?
Answer: 41%

Question: And the “Percent Inhibitions Left rear paw” value [2, 4]?
Answer: 76%

Question: And the “Percent Inhibitions Right rear paw” value [2, 4]?
Answer: 60%

Question: What about the “ΔWt(0-14)” value ([2]; 6.3 mg/kg s.c. x8, weight gain may be misleading (possible incipient kidney damage)) of the same compound?
Answer: (+24) gm

Question: What about the toxic dose ([2]; s.c. in saline every second day, higher doses were toxic) of the same compound?
Answer: > 6.3 mg/kg

Question: Which results are given for `CC(C)Cc1ccc(C(C)C(=O)O)cc1` (stereo not shown) [Nurofen, ibuprofen]?
Answer: % Inhibition Oedema 1 hr (Carrageenin paw oedema; [5]): 56%; % Inhibition Oedema 2 hr (Carrageenin paw oedema; [5]): 58%; % Inhibition Oedema 1 hr (Carrageenin paw oedema; without MPL): 37%; % Inhibition Oedema 2 hr (Carrageenin paw oedema; without MPL): 42%; % Inhibition Front paw ([2]; 40 mg/kg, days 8-14): 72%; % Inhibition Rear L. paw ([2]; 40 mg/kg, days 8-14): 54%; % Inhibition Rear R. paw ([2]; 40 mg/kg, days 8-14): 07%; Mean Differences Days 8-15 Ft. Paw Inflam. ([2]; 40 mg/kg, days 8-14): 0.7 +; Mean Differences Days 8-15 Rear R. Paw ([2]; 40 mg/kg, days 8-14): 1.48 mm; Mean Differences Days 8-15 ΔWt ([2]; 40 mg/kg, days 8-14): +15 gm; Mean Differences Days 8-15 Rear L. Paw ([2]; 40 mg/kg, days 8-14 (7 daily doses), therapeutic): 0.82 mm; Day 14: Signs arthritis Front paw inflam. [2, 6]: 2.5+; Day 14: Signs arthritis Left rear paw [2, 6]: 1.35 mm; Day 14: Signs arthritis Right rear paw [2, 6]: 1.72 mm; Percent Inhibitions rear paw inflammation Day 2 [2, 6]: (−05) %; Percent Inhibitions rear paw inflammation Day 4 [2, 6]: (−20) %; ΔWt(0-14) [2, 6]: +12 gm; Rear paw inflammation Day 2 [2, 7]: 1.48 mm; Rear paw inflammation Day 4 [2, 7]: 1.52 mm; Percent Inhibitions Front paw inflam. [2, 6]: (−14) %; Percent Inhibitions Left rear paw [2, 6]: 32%; Percent Inhibitions Right rear paw [2, 6]: 02%; Differences Days 15-18 (Rebound) Front paw ([2]; after 40 mg/kg, days 8-14): 1.1+; Differences Days 15-18 (Rebound) Rear L. paw ([2]; after 40 mg/kg, days 8-14): 0.38; Differences Days 15-18 (Rebound) Rear R. paw ([2]; after 40 mg/kg, days 8-14): 0.38; Differences Days 15-18 (Rebound) ΔWt. ([2]; after 40 mg/kg, days 8-14): +05

Question: With `COc1ccc2c(c1)c(CC(=O)O)c(C)n2C(=O)c1ccc(Cl)cc1` [Indomethacin, indomethacin] as the compound, how does the “% Reduction in Inflammation” value (arthritic rats; 1 mg/kg orally for 4 days) read?
Answer: 26%

Question: And the “% Reduction in Inflammation” value (arthritic rats; 3 mg/kg orally for 4 days)?
Answer: 68%

Question: What about the “% Reduction in Inflammation” value (arthritic rats; 5 mg/kg orally for 4 days) of the same compound?
Answer: 83%
